Experimental data: PMC5948259, “A phase I study to assess the mass balance, excretion, and pharmacokinetics of [^14C]-ixazomib, an oral proteasome inhibitor, in patients with advanced solid tumors” (Investigational New Drugs, 2017)
Where two headings read alike, the source gives them in different places.

Columns and labels:
[1] = tested on: plasma proteins, primarily serum albumin; design: method as in PMID 27121262, PMID 27196567; details: cited from earlier work
[2] = cited from earlier work
[3] = tested on: CYP2C9; design: method as in earlier work; details: 10 μM, exceeding clinical concentrations; cited from earlier work
[4] = tested on: CYP2B6; design: method as in earlier work; details: 10 μM, exceeding clinical concentrations; cited from earlier work
[5] = tested on: CYP1A2; design: method as in earlier work; details: 10 μM, exceeding clinical concentrations; cited from earlier work
[6] = tested on: CYP2C19; design: method as in earlier work; details: 10 μM, exceeding clinical concentrations; cited from earlier work
[7] = PK of ixazomib in plasma and urine (LC/MS/MS) after a single [14C]-ixazomib oral solution dose, phase I human ADME study Part A; type: in vivo; details: N = 5
Procedure: The primary objectives of the study were: (1) to assess the mass balance (i.e., cumulative excretion of TRA in urine and feces) of ixazomib following a single oral solution dose of 4.1 mg [^14C]-ixazomib containing approximately 500 nCi of TRA (specific activity of 125 nCi/mg); and (2) to characterize the PK of ixazomib in plasma and urine, and of TRA in plasma and whole blood, after a single oral solution dose of 4.1 mg [^14C]-ixazomib. The secondary objective was to assess the safety and tolerability of multiple-dose ixazomib administration in patients with advanced solid tumors or lymphoma.
This study was conducted in two parts: a 35-day PK cycle (Part A), followed by repeated 28-day treatment cycles (Part B; Fig. 1). In Part A of the study, patients who met the inclusion and exclusion criteria were admitted to the study clinic on the morning of day 1 for the initial confinement period (days 1–8). Patients received a single 10 mL oral solution dose of 4.1 mg [^14C]-ixazomib containing approximately 500 nCi of TRA, followed by 3 × 10 mL water rinses of the dosing cup. Patients then drank approximately 200 mL of water. Patients returned to the clinic on days 14, 21, 28, and 35 for a 24 h overnight clinic visit. Non-radiolabeled doses of ixazomib (4 mg capsule) were administered on days 14 and 21. After completing their day 35 assessments in Part A, patients were permitted to continue into Part B of the study, where they received non-radiolabeled ixazomib (4 mg capsules) once weekly on days 1, 8, and 15 of each 28-day treatment cycle until disease progression or unacceptable toxicity. All doses of ixazomib were administered on an empty stomach, at least 1 h before or at least 2 h after food.
Plasma and whole blood samples were collected at the following time points after ixazomib administration on day 1 of Part A: 0 (predose), 0.5, 1, 2, 3, 4, 8, 24, 48, 72, 96, 120, 144, 168, 312 (day 14), 480 (day 21), 648 (day 28), and 816 (day 35) h post dose. Complete urinary and fecal output was collected continuously during the initial confinement period of Part A (days 1–8). Patients were discharged from the clinic on day 8 and returned on days 14, 21, 28, and 35 for a 24 h overnight visit. Urinary and fecal output was collected during each of these 24 h overnight clinic visits. Patients were also instructed to collect all feces at home for the 24 h period before each overnight clinic visit (days 13, 20, 27, and 34).
Plasma and urine concentrations of ixazomib were measured using a validated liquid chromatography/tandem mass spectrometry (LC/MS/MS) assay with a quantitation range of 0.5–500 ng/mL [16].
The plasma PK of ixazomib was characterized over the first 14 days post dose, while the urine PK and excretion of ixazomib was assessed over the first 7 days post dose. TRA in plasma, whole blood, urine, and feces was assessed over the 35-day post-dose period in Part A. Mass balance of radiolabeled ixazomib was characterized based on the sum of cumulative amounts excreted in feces and urine during the continuous collection interval up to 7 days post dose (day 8, 168 h), and the interpolated amounts excreted in feces and urine between the weekly intermittent collections up to 35 days post dose. For the intervals of time during which urine and feces were not collected, the interval recovery of TRA was estimated as the area under the excretion rate-time curve from the end of the preceding collection interval to the start of the subsequent collection interval. PK parameters were calculated by non-compartmental analysis methods (Phoenix WinNonlin version 6.2, Certara, Princeton, NJ, USA).

SMILES: CC(C)C[C@H](NC(=O)CNC(=O)c1cc(Cl)ccc1Cl)B(O)O [ixazomib]
- Bound to plasma proteins [1]: 99%
- Median time to first maximum observed concentration (Tmax) ([2]; after oral administration): approximately 1 h
- Effect of a high-fat meal on ixazomib absorption [2]: decreases both the rate and extent of ixazomib absorption
- Geometric mean t1/2 [2]: 228 h
- Estimated relative contribution of 2C9 to metabolism [3]: < 1%
- Estimated relative contribution of 2B6 to metabolism [4]: 16%
- Estimated relative contribution of 1A2 to metabolism [5]: 26%
- Estimated relative contribution of 2C19 to metabolism [6]: 5%
- AUC(0-t) ([7]; human, plasma, po, 4.1 mg, plasma, single 4.1 mg oral solution dose of [14C]-ixazomib, read-out: Geometric mean AUC0–168, ng*h/mL (%CV), ixazomib): 847 ng·h/mL
- AUC(0-t) ([7]; human, plasma, po, 4.1 mg, plasma, single 4.1 mg oral solution dose of [14C]-ixazomib, read-out: Geometric mean AUC0–312, ng*h/mL (%CV), ixazomib): 1180 ng·h/mL
- dose excreted ([7]; human, urine, po, 4.1 mg, up to 168 h post dose, single 4.1 mg oral solution dose, read-out: Mean urinary recovery, % (SD): administered dose recovered in urine as unchanged drug): < 3.5%
- Cmax ([7]; human, plasma, single 4.1 mg oral solution dose of [14C]-ixazomib, read-out: Geometric mean Cmax, ng/mL (%CV), ixazomib): 89.1 ng/mL
- CL renal ([7]; human, urine, single 4.1 mg oral solution dose of [14C]-ixazomib, read-out: Geometric mean CLR (renal clearance), L/h (%CV) (converted)): 0.119 L/h
- Mean urinary recovery, % (SD): administered dose recovered in urine as unchanged drug ([7]; up to 168 h post dose, single 4.1 mg oral solution dose): 3.23 (2.13) %
